# Measured values from ChEMBL document CHEMBL1201861, “Genomics of Drug Sensitity in Cancer screening data, Wellcome Trust Sanger Institute”.
# pIC50: −log10 of the molar value.
# Assays:
# Experiment in all cases: cells
# D-502MG = format: functional, cell-based, Homo sapiens; settings: Homo sapiens, D-502MG
# Description: SANGER: Inhibition of human D-502MG cell growth in a cell viability assay.
# DMS-114 = format: functional, cell-based, Homo sapiens; settings: Homo sapiens, DMS-114
# EM-2 = format: functional, cell-based, Homo sapiens; settings: Homo sapiens, EM-2;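 note: growth inhibition of EM-2 cells, read out with a cell viability assay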
# Description: SANGER: Inhibition of human EM-2 cell growth in a cell viability assay.
# ES3 = format: functional, cell-based, Homo sapiens; settings: Homo sapiens, ES3;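 note: growth inhibition of ES3 cells, read out with a cell viability assay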
# Description: SANGER: Inhibition of human ES3 cell growth in a cell viability assay.
# EW-3 = format: functional, cell-based, Homo sapiens; settings: Homo sapiens, EW-3;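 note: cell viability assay read-out, IC50 reflects inhibition of growth of the EW-3 cells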
# Description: SANGER: Inhibition of human EW-3 cell growth in a cell viability assay.
# GR-ST = format: functional, cell-based, Homo sapiens; settings: Homo sapiens, GR-ST
# Description: SANGER: Inhibition of human GR-ST cell growth in a cell viability assay.
# GT3TKB = format: functional, cell-based, Homo sapiens; settings: Homo sapiens, GT3TKB;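 note: growth inhibition of the cell line, read out with a cell viability assay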
# Description: SANGER: Inhibition of human GT3TKB cell growth in a cell viability assay.
# HAL-01 = format: functional, cell-based, Homo sapiens; settings: Homo sapiens, HAL-01;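 note: growth inhibition of human HAL-01 cells, read out with a cell viability assay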
# Description: SANGER: Inhibition of human HAL-01 cell growth in a cell viability assay.
# HCE-T = format: functional, cell-based, Homo sapiens; settings: Homo sapiens, HCE-T;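 note: cell viability assay read-out, reporting inhibition of HCE-T cell growth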
# Description: SANGER: Inhibition of human HCE-T cell growth in a cell viability assay.
# HT = format: functional, cell-based, Homo sapiens; settings: Homo sapiens, HT
# Description: SANGER: Inhibition of human HT cell growth in a cell viability assay.
# HuTu80 = format: functional, cell-based, Homo sapiens, HUTU-80; settings: Homo sapiens, HuTu80;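 note: growth inhibition of HuTu80 human cells, determined with a cell viability readout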
# Description: SANGER: Inhibition of human HUTU-80 cell growth in a cell viability assay.
# KMOE-2 = format: functional, cell-based, Homo sapiens; settings: Homo sapiens, KMOE-2;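 note: growth inhibition of human KMOE-2 cells, read out with a cell viability assay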
# Description: SANGER: Inhibition of human KMOE-2 cell growth in a cell viability assay.
# LB1047-RCC = format: functional, cell-based, Homo sapiens; settings: Homo sapiens, LB1047-RCC;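 note: inhibition of cell growth, determined with a cell viability assay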
# Description: SANGER: Inhibition of human LB1047-RCC cell growth in a cell viability assay.
# LB2241-RCC = format: functional, cell-based, Homo sapiens; settings: Homo sapiens, LB2241-RCC;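 note: cell viability assay measuring how strongly the cultured human renal carcinoma line is prevented from growing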
# Description: SANGER: Inhibition of human LB2241-RCC cell growth in a cell viability assay.
# LB2518-MEL = format: functional, cell-based, Homo sapiens; settings: Homo sapiens, LB2518-MEL;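 note: growth inhibition of human LB2518-MEL cells, measured with a cell viability assay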
# Description: SANGER: Inhibition of human LB2518-MEL cell growth in a cell viability assay.
# LB996-RCC = format: functional, cell-based, Homo sapiens; settings: Homo sapiens, LB996-RCC
# Description: SANGER: Inhibition of human LB996-RCC cell growth in a cell viability assay.
# LS-1034 = format: functional, cell-based, Homo sapiens; settings: Homo sapiens, LS-1034
# Description: SANGER: Inhibition of human LS-1034 cell growth in a cell viability assay.
# LU-134-A = format: functional, cell-based, Homo sapiens; settings: Homo sapiens, LU-134-A
# Description: SANGER: Inhibition of human LU-134-A cell growth in a cell viability assay.
# LXF-289 cell line = format: functional, cell-based, Homo sapiens; settings: Homo sapiens, LXF-289
# Description: SANGER: Inhibition of human LXF-289 cell growth in a cell viability assay.
# MC116 = format: functional, cell-based, Homo sapiens; settings: Homo sapiens, MC116;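 note: growth inhibition of MC116 cells, read out with a cell viability assay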
# Description: SANGER: Inhibition of human MC116 cell growth in a cell viability assay.
# MEG-01 = format: functional, cell-based, Homo sapiens; settings: Homo sapiens, MEG-01;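 note: growth inhibition of MEG-01 cells, read out by a cell viability assay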
# Description: SANGER: Inhibition of human MEG-01 cell growth in a cell viability assay.
# MLMA = format: functional, cell-based, Homo sapiens; settings: Homo sapiens, MLMA;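 note: growth inhibition of MLMA cells (human), determined through a cell viability readout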
# Description: SANGER: Inhibition of human MLMA cell growth in a cell viability assay.
# MOLT-4 = format: functional, cell-based, Homo sapiens; settings: Homo sapiens, MOLT-4;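 note: growth inhibition of MOLT-4 cells, determined with a cell viability readout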
# Description: SANGER: Inhibition of human MOLT-4 cell growth in a cell viability assay.
# MV4-11 = format: functional, cell-based, Homo sapiens, MV-4-11; settings: Homo sapiens, MV4-11;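 note: cell viability readout measuring growth inhibition of human MV-4-11 cells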
# Description: SANGER: Inhibition of human MV-4-11 cell growth in a cell viability assay.
# Mo = format: functional, cell-based, Homo sapiens; settings: Homo sapiens, Mo
# Description: SANGER: Inhibition of human Mo-T cell growth in a cell viability assay.
# NCI-H1155 = format: functional, cell-based, Homo sapiens; settings: Homo sapiens, NCI-H1155;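 note: cell growth inhibition measured by a viability assay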
# Description: SANGER: Inhibition of human NCI-H1155 cell growth in a cell viability assay.
# NCI-H1770 = format: functional, cell-based, Homo sapiens; settings: Homo sapiens, NCI-H1770;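 note: growth inhibition of NCI-H1770 cells determined with a viability readout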
# Description: SANGER: Inhibition of human NCI-H1770 cell growth in a cell viability assay.
# NCI-H23 = format: functional, cell-based, Homo sapiens; settings: Homo sapiens, NCI-H23;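 note: cell viability assay measuring growth inhibition of NCI-H23 cells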
# Description: SANGER: Inhibition of human NCI-H23 cell growth in a cell viability assay.
# OCI-AML2 = format: functional, cell-based, Homo sapiens; settings: Homo sapiens, OCI-AML2;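 note: growth inhibition of OCI-AML2 cells, read out with a cell viability assay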
# Description: SANGER: Inhibition of human OCI-AML2 cell growth in a cell viability assay.
# OS-RC-2 = format: functional, cell-based, Homo sapiens; settings: Homo sapiens, OS-RC-2;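 note: growth inhibition of human OS-RC-2 cells, measured by a cell viability assay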
# Description: SANGER: Inhibition of human OS-RC-2 cell growth in a cell viability assay.
# RH-1 = format: functional, cell-based, Homo sapiens; settings: Homo sapiens, RH-1;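 note: growth inhibition of human RH-1 cells, read out with a cell viability assay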
# Description: SANGER: Inhibition of human RH-1 cell growth in a cell viability assay.
# RXF 393 = format: functional, cell-based, Homo sapiens; settings: Homo sapiens, RXF 393;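 note: growth inhibition of human RXF 393 cells, read out with a cell viability assay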
# Description: SANGER: Inhibition of human RXF393 cell growth in a cell viability assay.
# Ramos-2G6-4C10 = format: functional, cell-based, Homo sapiens; settings: Homo sapiens, Ramos-2G6-4C10;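 note: growth inhibition of the cell line, measured by a cell viability read-out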
# Description: SANGER: Inhibition of human Ramos-2G6-4C10 cell growth in a cell viability assay.
# SF-539 = format: functional, cell-based, Homo sapiens; settings: Homo sapiens, SF-539;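 note: Read-out is a cell viability assay, with IC50 reflecting inhibition of cell growth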
# Description: SANGER: Inhibition of human SF539 cell growth in a cell viability assay.
# SH-4 = format: functional, cell-based, Homo sapiens; settings: Homo sapiens, SH-4;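 note: growth inhibition of SH-4 cells, read out with a cell viability assay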
# Description: SANGER: Inhibition of human SH-4 cell growth in a cell viability assay.
# SK-MEL-1 = format: functional, cell-based, Homo sapiens; settings: Homo sapiens, SK-MEL-1;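 note: growth inhibition of human SK-MEL-1 cells, read out by a cell viability assay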
# Description: SANGER: Inhibition of human SK-MEL-1 cell growth in a cell viability assay.
# SK-NEP-1 = format: functional, cell-based, Homo sapiens; settings: Homo sapiens, SK-NEP-1;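 note: growth inhibition of human SK-NEP-1 cells, read out by a cell viability assay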
# Description: SANGER: Inhibition of human SK-NEP-1 cell growth in a cell viability assay.
# SK-PN-DW = format: functional, cell-based, Homo sapiens; settings: Homo sapiens, SK-PN-DW;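 note: growth inhibition measured with a viability assay on these cells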
# Description: SANGER: Inhibition of human SK-PN-DW cell growth in a cell viability assay.
# SNU-C2B = format: functional, cell-based, Homo sapiens; settings: Homo sapiens, SNU-C2B;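 note: cell viability readout used to measure compound-driven suppression of SNU-C2B cell proliferation, IC50 marking half-maximal growth inhibition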
# Description: SANGER: Inhibition of human SNU-C2B cell growth in a cell viability assay.
# SW 954 = format: functional, cell-based, Homo sapiens; settings: Homo sapiens, SW 954;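 note: growth inhibition of SW954 human cancer cells, read out as cell viability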
# Description: SANGER: Inhibition of human SW954 cell growth in a cell viability assay.
# TE-1 = format: functional, cell-based, Homo sapiens; settings: Homo sapiens, TE-1;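 note: growth inhibition of the human TE-1 cell line, read out with a cell viability assay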
# Description: SANGER: Inhibition of human TE-1 cell growth in a cell viability assay.
# 697 = format: functional, cell-based, Homo sapiens; settings: Homo sapiens
# Description: SANGER: Inhibition of human 697 cell growth in a cell viability assay.
# A4-Fuk = format: functional, cell-based, Homo sapiens; settings: Homo sapiens, A4-Fuk;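 note: growth inhibition of A4-Fuk cells, read out by a cell viability assay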
# Description: SANGER: Inhibition of human A4-Fuk cell growth in a cell viability assay.
# A498 = format: functional, cell-based, Homo sapiens; settings: Homo sapiens, A498;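 note: growth inhibition of human A498 cells, read out with a cell viability assay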
# Description: SANGER: Inhibition of human A498 cell growth in a cell viability assay.
# A704 = format: functional, cell-based, Homo sapiens; settings: Homo sapiens, A704;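 note: growth inhibition of human A704 cells, read out with a cell viability assay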
# Description: SANGER: Inhibition of human A704 cell growth in a cell viability assay.
# BB65-RCC = format: functional, cell-based, Homo sapiens; settings: Homo sapiens, BB65-RCC;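 note: growth inhibition of the cell line, measured with a cell viability assay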
# Description: SANGER: Inhibition of human BB65-RCC cell growth in a cell viability assay.
# BE-13 = format: functional, cell-based, Homo sapiens; settings: Homo sapiens, BE-13;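 note: growth inhibition of human BE-13 cells, measured with a cell viability assay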
# Description: SANGER: Inhibition of human BE-13 cell growth in a cell viability assay.
# U-266 = format: functional, cell-based, Homo sapiens; settings: Homo sapiens, U-266
# Description: SANGER: Inhibition of human U-266 cell growth in a cell viability assay.
# CAS-1 = format: functional, cell-based, Homo sapiens; settings: Homo sapiens, CAS-1;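 note: growth inhibition of CAS-1 cells, measured with a cell viability assay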
# Description: SANGER: Inhibition of human CAS-1 cell growth in a cell viability assay.
structure (smiles),measurement,setting,value
Nc1ccn([C@@H]2O[C@H](CO)[C@@H](O)C2(F)F)c(=O)n1 [GEMCITABINE],pIC50,D-502MG,< 5.99
same,pIC50,DMS-114,< 5.99
same,pIC50,EM-2,6.80
same,pIC50,ES3,7.35
same,pIC50,EW-3,6.24
same,pIC50,GR-ST,> 8.40
same,pIC50,GT3TKB,7.37
same,pIC50,HAL-01,8.09
same,pIC50,HCE-T,7.91
same,pIC50,HT,< 5.99
same,pIC50,HuTu80,> 8.40
same,pIC50,KMOE-2,6.81
same,pIC50,LB1047-RCC,> 8.40
same,pIC50,LB2241-RCC,> 8.40
same,pIC50,LB2518-MEL,7.19
same,pIC50,LB996-RCC,7.19
same,pIC50,LS-1034,< 5.99
same,pIC50,LU-134-A,7.40
same,pIC50,LXF-289 cell line,8.48
same,pIC50,MC116,6.32
same,pIC50,MEG-01,8.90
same,pIC50,MLMA,6.57
same,pIC50,MOLT-4,7.19
same,pIC50,MV4-11,> 8.40
same,pIC50,Mo,< 5.99
same,pIC50,NCI-H1155,6.31
same,pIC50,NCI-H1770,7.26
same,pIC50,NCI-H23,6.68
same,pIC50,OCI-AML2,> 8.40
same,pIC50,OS-RC-2,8.18
same,pIC50,RH-1,> 8.40
same,pIC50,RXF 393,< 5.99
same,pIC50,Ramos-2G6-4C10,6.18
same,pIC50,SF-539,8.99
same,pIC50,SH-4,8.04
same,pIC50,SK-MEL-1,< 5.99
same,pIC50,SK-NEP-1,7.64
same,pIC50,SK-PN-DW,> 8.40
same,pIC50,SNU-C2B,< 5.99
same,pIC50,SW 954,7.63
same,pIC50,TE-1,< 5.99
same,pIC50,697,8.20
same,pIC50,A4-Fuk,> 8.40
same,pIC50,A498,< 5.99
same,pIC50,A704,7.27
same,pIC50,BB65-RCC,> 8.40
same,pIC50,BE-13,8.28
same,pIC50,U-266,6.22
same,pIC50,CAS-1,6.02
O=C(O)c1ccc(-c2c[nH]c3ncc(-c4ccccc4)cc23)cc1C1CCCC1 [GSK-650394],pIC50,D-502MG,< 4.80
same,pIC50,DMS-114,< 4.80
same,pIC50,EM-2,< 4.80
same,pIC50,ES3,< 4.80
same,pIC50,EW-3,< 4.80
same,pIC50,GR-ST,< 4.80
same,pIC50,GT3TKB,< 4.80
same,pIC50,HAL-01,< 4.80
same,pIC50,HCE-T,< 4.80
same,pIC50,HT,< 4.80
same,pIC50,HuTu80,5.89
same,pIC50,KMOE-2,< 4.80
same,pIC50,LB1047-RCC,5.21
same,pIC50,LB2241-RCC,< 4.80
same,pIC50,LB2518-MEL,< 4.80
same,pIC50,LB996-RCC,< 4.80
same,pIC50,LS-1034,< 4.80
same,pIC50,LU-134-A,5.18
same,pIC50,LXF-289 cell line,5.85
same,pIC50,MC116,< 4.80
same,pIC50,MEG-01,5.28
same,pIC50,MLMA,< 4.80
same,pIC50,MOLT-4,< 4.80
same,pIC50,MV4-11,6.78
same,pIC50,Mo,< 4.80
same,pIC50,NCI-H1155,< 4.80
same,pIC50,NCI-H1770,5.00
same,pIC50,NCI-H23,< 4.80
same,pIC50,OCI-AML2,< 4.80
same,pIC50,OS-RC-2,< 4.80
same,pIC50,RH-1,5.11
same,pIC50,RXF 393,< 4.80
same,pIC50,Ramos-2G6-4C10,< 4.80
same,pIC50,SF-539,< 4.80
same,pIC50,SH-4,< 4.80
same,pIC50,SK-MEL-1,< 4.80
same,pIC50,SK-NEP-1,< 4.80
same,pIC50,SK-PN-DW,4.85
same,pIC50,SNU-C2B,< 4.80
same,pIC50,SW 954,5.35
same,pIC50,TE-1,< 4.80
same,pIC50,697,< 4.80
same,pIC50,A4-Fuk,4.83
same,pIC50,A498,< 4.80
same,pIC50,A704,< 4.80
same,pIC50,BB65-RCC,< 4.80
same,pIC50,BE-13,< 4.80
same,pIC50,U-266,< 4.80
same,pIC50,CAS-1,4.96
